According to patent US12365668B2, “Aminopyrazine diol compounds as PI3K-y inhibitors” (Incyte Corporation, priority 2018, dated 2025):
Where two headings read alike, the source gives them in different places.

Columns and labels:
[1] = system: Phosphorylated Ribosomal Protein S6 (RPS6) in THP-1 cells; experiment: THP-1 RPS6 ELISA Assay; format: cell-based, Human; conditions: serum starved, 2 hours compound, 10 nM MCP-1 for 15 minutes, Phospho-RPS6 ELISA, read-out: PI3Kγ_THP1_RPS6_ELISA IC50
Method: Example A. THP-1 RPS6 ELISA Assay
To measure the Phosphorylated Ribosomal Protein S6 (RPS6) in cell lysates, THP-1 cells (Human Acute Monocytic Leukemia) are purchased from ATCC (Manassas, VA) and maintained in RPMI with 10% FBS (Gibco/Life Technologies, Carlsbad, CA). For the assay, THP-1 cells are serum starved overnight in RPMI, then plated in RPMI (2×10^5 cells/well in 90 μL) into 96-well flat-bottom tissue culture treated plates (Corning, Corning, NY), in the presence or absence of a concentration range of test compounds. Covered plates are incubated for 2 hours at 37° C., 5% CO2 then treated with or without 10 nM MCP-1(MYBioSource, San Diego, CA) for 15 minutes at 37° C., 5% CO2. Plates are centrifuged at 1600 RPM and supernatants are removed. Cells are lysed in Lysis Buffer (Cell Signaling, Danvers, MA) with Protease Inhibitor (Calbiochem/EMD, Germany), PMSF (Sigma, St Louis MO), HALTS (Thermo Fisher, Rockford, IL) for 30 min on wet ice. Cell lysates are frozen at −80° C. before testing. The lysates are tested in the Human/Mouse/Rat Phospho-RPS6 ELISA (R&D Systems, Inc. Minn, MN). The plate is measured using a microplate reader (SpectraMax M5—Molecular Devices, LLC Sunnyvale, CA) set to 450 nm with a wavelength correction of 540. IC50 determination is performed by fitting the curve of inhibitor percent inhibition versus the log of the inhibitor concentration using the GraphPad Prism 5.0 software.

[2] = biological target: PI3Kγ (p110γ) Recombinant Human Protein (Homo sapiens (Human), UniProt P48736); experiment: PI3K-γ Scintillation Proximity Assay; format: biochemical; conditions: 20 μM PIP2, 2 μM ATP, SPA
Description: Example B. PI3K-γ Scintillation Proximity Assay Materials: [γ-^33P]ATP (10 mCi/mL) and Wheat Germ Agglutinin (WGA) YSi SPA Scintillation Beads was purchased from Perkin Elmer (Waltham, MA). Lipid kinase substrate, D-myo-Phosphatidylinositol 4,5-bisphosphate (PtdIns(4,5)P2)D (+)-sn-1,2-di-O-octanoylglyceryl, 3-O-phospho linked (PIP2), CAS 204858-53-7, was purchased from Echelon Biosciences (Salt Lake City, UT). PI3Kγ (p110γ) Recombinant Human Protein was purchased from Life technology (Grand Island, NY). ATP, MgCl2, DTT, EDTA, MOPS and CHAPS were purchased from Sigma Aldrich (St. Louis, MO). The kinase reaction was conducted in polystyrene 384-well Greiner Bio-one white plate from Thermo Fisher Scientific in a final volume of 25 μL. Inhibitors were first diluted serially in DMSO and added to the plate wells before the addition of other reaction components. The final concentration of DMSO in the assay was 2%. The PI3Kγ assay was carried out at room temperature in 20 mM MOPS, pH 6.7, 10 mM MgCl2, 5 mM DTT and CHAPS 0.03%. Reactions were initiated by the addition of ATP, the final reaction mixture consisted of 20 μM PIP2, 2 μM ATP, 0.5 μCi [γ-^33P] ATP, 13 nM PI3Kγ. Reactions were incubated for 120 min and terminated by the addition of 40 μL SPA beads suspended in quench buffer: 163 mM potassium phosphate pH 7.8, 20% glycerol, 25 mM EDTA. The final concentration of SPA beads is 1.0 mg/mL. After the plate sealing, plates were shaken overnight at room temperature and centrifuged at 1500 rpm for 10 min, the radioactivity of the product was determined by scintillation counting on Topcount (Perkin-Elmer). IC50 determination was performed by fitting the curve of percent of the solvent control activity versus the log of the inhibitor concentration using the GraphPad Prism 6.0 software.

[3] = biological target: PI3Kδ (p110δ/p85α) Recombinant Human Protein (Homo sapiens (Human), UniProt O00329); experiment: PI3Kδ Scintillation Proximity Assay; format: biochemical; conditions: 20 μM PIP2, 2 μM ATP, SPA
Description: Example C. PI3Kδ Scintillation Proximity Assay Materials: [γ-^33P]ATP (10 mCi/mL) and Wheat Germ Agglutinin (WGA) YSi SPA Scintillation Beads was purchased from Perkin Elmer (Waltham, MA). Lipid kinase substrate, D-myo-Phosphatidylinositol 4,5-bisphosphate (PtdIns(4,5)P2)D (+)-sn-1,2-di-O-octanoylglyceryl, 3-O-phospho linked (PIP2), CAS 204858-53-7, was purchased from Echelon Biosciences (Salt Lake City, UT). PI3Kδ (p110δ/p85α) Recombinant Human Protein was purchased from Eurofins (St Charles, MO). ATP, MgCl2, DTT, EDTA, MOPS and CHAPS were purchased from Sigma Aldrich (St. Louis, MO). The kinase reaction was conducted in polystyrene 384-well Greiner Bio-one white plate from Thermo Fisher Scientific in a final volume of 25 μL. Inhibitors were first diluted serially in DMSO and added to the plate wells before the addition of other reaction components. The final concentration of DMSO in the assay was 2%. The PI3Kδ assay was carried out at room temperature in 20 mM MOPS, pH 6.7, 10 mM MgCl2, 5 mM DTT and CHAPS 0.03%. Reactions were initiated by the addition of ATP, the final reaction mixture consisted of 20 μM PIP2, 2 μM ATP, 0.5 μCi [γ-^33P] ATP, 3.4 nM PI3Kδ. Reactions were incubated for 120 min and terminated by the addition of 40 μL SPA beads suspended in quench buffer: 163 mM potassium phosphate pH 7.8, 20% glycerol, 25 mM EDTA. The final concentration of SPA beads is 1.0 mg/mL. After the plate sealing, plates were shaken overnight at room temperature and centrifuged at 1500 rpm for 10 min, the radioactivity of the product was determined by scintillation counting on Topcount (PerkinElmer). IC50 determination was performed by fitting the curve of percent of the solvent control activity versus the log of the inhibitor concentration using the GraphPad Prism 6.0 software.

PI3Kδ (p110δ/p85α) Recombinant Human Protein, sequence (O00329 whole entry): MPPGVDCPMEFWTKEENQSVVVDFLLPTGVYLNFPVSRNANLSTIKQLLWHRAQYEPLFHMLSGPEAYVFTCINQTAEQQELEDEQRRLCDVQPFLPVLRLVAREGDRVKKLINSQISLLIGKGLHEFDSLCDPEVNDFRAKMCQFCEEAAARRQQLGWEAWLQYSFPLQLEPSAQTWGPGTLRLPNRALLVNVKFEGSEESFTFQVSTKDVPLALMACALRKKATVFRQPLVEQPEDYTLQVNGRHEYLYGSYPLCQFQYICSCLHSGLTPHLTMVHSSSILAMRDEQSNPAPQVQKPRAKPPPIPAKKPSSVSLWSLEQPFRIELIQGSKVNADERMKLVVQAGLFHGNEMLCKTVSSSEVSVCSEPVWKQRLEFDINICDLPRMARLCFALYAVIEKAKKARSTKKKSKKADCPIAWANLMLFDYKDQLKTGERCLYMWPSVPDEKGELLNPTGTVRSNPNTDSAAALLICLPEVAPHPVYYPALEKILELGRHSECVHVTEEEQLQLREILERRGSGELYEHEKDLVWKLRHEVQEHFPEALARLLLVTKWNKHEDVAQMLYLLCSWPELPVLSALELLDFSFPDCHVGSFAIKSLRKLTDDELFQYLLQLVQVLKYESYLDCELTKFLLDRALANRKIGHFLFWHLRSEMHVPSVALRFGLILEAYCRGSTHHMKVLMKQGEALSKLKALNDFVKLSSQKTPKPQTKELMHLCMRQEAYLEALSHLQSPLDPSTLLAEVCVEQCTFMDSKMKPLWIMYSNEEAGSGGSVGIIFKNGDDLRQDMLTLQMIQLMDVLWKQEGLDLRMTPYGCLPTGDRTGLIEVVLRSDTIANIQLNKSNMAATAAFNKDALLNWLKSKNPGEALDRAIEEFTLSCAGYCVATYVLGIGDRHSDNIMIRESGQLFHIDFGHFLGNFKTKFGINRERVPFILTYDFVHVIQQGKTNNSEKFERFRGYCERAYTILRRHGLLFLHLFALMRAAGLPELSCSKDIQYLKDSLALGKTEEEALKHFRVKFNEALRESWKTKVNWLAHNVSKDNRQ
PI3Kδ (p110δ/p85α) Recombinant Human Protein, sequence (P27986 whole entry partner): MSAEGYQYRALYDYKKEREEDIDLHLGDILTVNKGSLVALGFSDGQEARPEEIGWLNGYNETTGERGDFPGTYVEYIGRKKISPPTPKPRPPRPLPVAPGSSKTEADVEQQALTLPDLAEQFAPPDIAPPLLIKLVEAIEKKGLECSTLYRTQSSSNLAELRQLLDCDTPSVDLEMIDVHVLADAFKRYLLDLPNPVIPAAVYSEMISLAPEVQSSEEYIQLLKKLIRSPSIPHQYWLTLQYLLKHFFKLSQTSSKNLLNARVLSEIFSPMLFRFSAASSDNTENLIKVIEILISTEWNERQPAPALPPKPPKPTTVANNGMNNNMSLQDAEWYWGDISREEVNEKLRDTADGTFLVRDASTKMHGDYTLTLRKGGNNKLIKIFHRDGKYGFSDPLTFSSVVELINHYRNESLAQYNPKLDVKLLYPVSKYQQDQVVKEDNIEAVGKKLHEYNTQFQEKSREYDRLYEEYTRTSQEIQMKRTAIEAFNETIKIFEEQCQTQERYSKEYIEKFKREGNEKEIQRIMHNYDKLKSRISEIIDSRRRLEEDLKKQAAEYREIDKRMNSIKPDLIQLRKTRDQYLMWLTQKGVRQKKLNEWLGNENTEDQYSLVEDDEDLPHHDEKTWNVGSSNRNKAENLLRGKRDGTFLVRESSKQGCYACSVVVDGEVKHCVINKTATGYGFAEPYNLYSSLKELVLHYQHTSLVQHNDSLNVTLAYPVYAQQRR
PI3Kγ (p110γ) Recombinant Human Protein, sequence (P48736 whole entry): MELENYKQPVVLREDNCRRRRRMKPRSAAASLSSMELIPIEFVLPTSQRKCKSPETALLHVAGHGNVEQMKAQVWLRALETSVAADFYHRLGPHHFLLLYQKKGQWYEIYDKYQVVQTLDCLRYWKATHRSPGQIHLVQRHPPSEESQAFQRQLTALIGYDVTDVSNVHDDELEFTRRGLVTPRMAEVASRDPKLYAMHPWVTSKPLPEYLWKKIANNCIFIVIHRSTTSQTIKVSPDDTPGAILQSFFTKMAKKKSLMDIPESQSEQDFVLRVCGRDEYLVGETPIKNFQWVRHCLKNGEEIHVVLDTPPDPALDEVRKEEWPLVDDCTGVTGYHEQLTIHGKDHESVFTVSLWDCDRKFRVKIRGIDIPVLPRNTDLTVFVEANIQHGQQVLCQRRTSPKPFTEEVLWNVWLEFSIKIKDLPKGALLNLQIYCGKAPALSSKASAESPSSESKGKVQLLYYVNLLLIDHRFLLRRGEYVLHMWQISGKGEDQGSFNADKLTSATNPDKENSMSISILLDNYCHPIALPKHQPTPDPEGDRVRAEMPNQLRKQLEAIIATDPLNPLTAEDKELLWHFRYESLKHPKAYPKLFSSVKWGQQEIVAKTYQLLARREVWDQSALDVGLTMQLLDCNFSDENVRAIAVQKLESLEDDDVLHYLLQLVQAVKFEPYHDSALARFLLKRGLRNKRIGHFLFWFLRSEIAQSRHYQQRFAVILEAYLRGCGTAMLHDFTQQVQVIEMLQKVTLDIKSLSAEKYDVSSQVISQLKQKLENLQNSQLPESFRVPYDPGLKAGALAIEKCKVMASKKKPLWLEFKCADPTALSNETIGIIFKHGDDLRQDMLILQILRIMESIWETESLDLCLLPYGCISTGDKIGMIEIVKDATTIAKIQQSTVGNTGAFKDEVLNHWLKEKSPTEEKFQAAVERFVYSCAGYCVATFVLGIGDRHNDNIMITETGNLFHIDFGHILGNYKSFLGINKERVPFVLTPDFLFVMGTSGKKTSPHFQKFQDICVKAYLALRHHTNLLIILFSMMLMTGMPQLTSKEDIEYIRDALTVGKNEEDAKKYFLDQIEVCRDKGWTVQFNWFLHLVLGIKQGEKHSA

Row | IC50 ([1]; Homo sapiens) [nM] | Structure (SMILES) | IC50 [2] [nM] | IC50 [3] [nM] | IC50 [1] [nM]
1 | 100 to 500 | Cc1ccc(C(O)(CO)C(F)(F)F)cc1-c1cnc(N)c(-n2cncn2)n1 (single isomer, unassigned) [Example 15, 2-(3-(5-Amino-6-(1H-1,2,4-triazol-1-yl)pyrazin-2-yl)-4-methylphenyl)-3,3,3-trifluoropropane-1,2-diol] | ≤ 100 | ≤ 100 | –
2 | – | Cc1ccc(C(O)(CO)C(F)(F)F)cc1-c1cnc(N)c(-n2nccn2)n1 (centres unmarked) [Example 14, 2-(3-(5-Amino-6-(1H-1,2,3-triazol-2-yl)pyrazin-2-yl)-4-methylphenyl)-3,3,3-trifluoropropane-1,2-diol] | ≤ 100 | ≤ 100 | < 100
3 | – | Cc1ccc([C@](O)(CO)C(F)F)cc1-c1cnc(N)c(C(=O)N2CCC[C@@H]2CO)n1 [Example 45, (3-Amino-6-(5-((S)-1,1-difluoro-2,3-dihydroxypropan-2-yl)-2-methylphenyl)pyrazin-2-yl)((R)-2-(hydroxymethyl)pyrrolidin-1-yl)methanone] | – | 500 to 2000 | 100 to 500
